According to PMC12775434, “Ultra-large virtual screening unveils potent agonists of the neuromodulatory orphan receptor GPR139” (Nature Communications, 2025):
“And” between values parts separate entries of the source, which are not always exact repeats. Identical values can stand only once. Like-named read-outs stand apart in the source and are kept apart here.

Assays:
GPR139 [1] = biological target: T1, GPR139 (Homo sapiens, UniProt Q6DWJ6); test: Inositol monophosphate (IP1) accumulation assay, GPR139-CHOk1; type: cell-based; settings: for EC50: read-out: pEC50 IP1 (converted); for Emax: read-out: Emax (%) IP1
T1 sequence (Q6DWJ6 1-353): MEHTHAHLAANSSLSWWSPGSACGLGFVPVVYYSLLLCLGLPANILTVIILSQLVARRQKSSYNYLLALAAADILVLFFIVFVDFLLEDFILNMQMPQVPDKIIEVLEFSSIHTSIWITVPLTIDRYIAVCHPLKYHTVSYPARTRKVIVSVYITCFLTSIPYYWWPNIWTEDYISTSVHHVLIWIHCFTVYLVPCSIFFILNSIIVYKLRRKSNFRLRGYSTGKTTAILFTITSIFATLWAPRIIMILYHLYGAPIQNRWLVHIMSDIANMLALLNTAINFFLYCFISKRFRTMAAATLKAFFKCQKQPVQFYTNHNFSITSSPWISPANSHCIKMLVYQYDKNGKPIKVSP
Description: Primary screening and pharmacological characterization of compounds were performed using a CHO-K1 cell line that stably expresses human GPR139 (GPR139-CHOk1). The GPR139-CHOk1 cell line was kindly provided by H. Lundbeck A/S, Denmark[24]. GPR139-CHOk1 cells were grown in Ham’s F-12 Kaighn’s Modification Medium (ThermoFisher #21127030) supplemented with 10% dialyzed fetal bovine serum (US origin, ThermoFisher #26400044), 100 units/mL Penicillin-Streptomycin (ThermoFisher #15140122), and 1 mg/mL Geneticin (ThermoFisher #11811031). […] M1R-CHOk1 cells were purchased from The Missouri S&T cDNA Resource Center (#CEM100TN00). M1R-CHOk1 cells were grown in Ham’s F12 Medium (ThermoFisher #21765029) supplemented with 10% fetal bovine serum (Brazilian origin, ThermoFisher #10270106), 100 units/mL Penicillin-Streptomycin, and 0.25 mg/mL Geneticin. HEK293A cells transiently transfected with GPR139 were used for additional pharmacological assessment of signaling pathways activated by GPR139. HEK239A cells were generously provided by Dr. Asuka Inoue, Tohoku University, Japan. HEK293A cells were grown in Dulbecco’s Modified Eagle Medium (ThermoFisher #31966047) supplemented with 10% dialyzed fetal bovine serum and 100 units/mL Penicillin-Streptomycin. Cell lines were maintained at 37 °C in humidified incubator equilibrated with 5% CO2.
HTRF IP-One Gq kit (Cisbio #62IPAPEC) was used to detect the accumulation of inositol monophosphate (IP1) as described in the work by Shehata et al.[26]. GPR139-CHOk1 cells were dissociated and resuspended in HEPES buffer. 50,000 cells in 5 µL and 5 µL test compounds diluted from DMSO stocks (final DMSO concentration of maximally 0.3%) in HEPES buffer supplemented with 40 mM LiCl were mixed in each well of white 384-well OptiPlate (PerkinElmer #6007290). The cells were incubated for 1 h at 37 °C. Then, 10 µL detection reagent composed of 2.5% Eu3 + -anti-IP1 antibody and 2.5% IP1-d2 diluted in lysis buffer was added, and the cells were incubated for 1 h at room temperature before measurements. Measurements were performed on EnVision Multimode Plate Reader (PerkinElmer) using excitation light of 340 nm and emission light of 615 nm and 665 nm. The time resolved-fluorescence resonance energy transfer (TR-FRET) 665 nm/615 nm ratio, which is inversely proportional to the IP1 accumulation, was used to determine the IP1 response.
Pharmacological data and statistical analyses were performed in GraphPad Prism v9–10 (Graphpad Software Inc., San Diego, CA), which are also specifically described in the figure and table legends. The functional assay responses were normalized to buffer (0%) and Lundbeck Cmp 1a or JNJ-63533054 (100%), for Ca^2+ and IP1 experiments in the GPR139-CHOk1 stable cell line or Ca^2+, G protein activation, and arrestin-3 recruitment experiments in the HEK293A cells transiently transfected with GPR139, respectively. Data are from at least three independent experiments, unless stated otherwise. Concentration-response curves were fitted applying non-linear regression using the log (agonist) versus response model with variable slope. ANOVA was applied for comparing results and determining statistical significance. Comparison of responses to the reference was performed using one-way ANOVA with Dunnett’s multiple comparisons test at significance threshold of p < 0.05. Comparison of responses across assays and ligands was performed using two-way ANOVA with Tukey’s multiple comparisons test at a significance threshold of p < 0.05.

GPR139 [2] = biological target: T1, GPR139; test: Ca2+ mobilization assay, antagonist mode (EC80 800 nM Lundbeck Cmp 1a after 20 min preincubation), GPR139-CHOk1; type: cell-based
Summary of the method: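 Fluo-4-loaded GPR139-CHOk1 cells in HEPES-buffered HBSS (pH 7.4, 2.5 mM probenecid) given test compounds at 10 µM, then after 20 min challenged with 800 nM Lundbeck Cmp 1a (EC80). Calcium fluorescence read at 37 °C, 485/525 nm.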

[3] = Supplementary Table 2, mean ± SEM
[4] = log [compound] M -4.5, individual replicates
[5] = log [compound] M -5.0, individual replicates
[6] = log [compound] M -5.5, individual replicates
[7] = log [compound] M -6.0, individual replicates
[8] = log [compound] M -6.5, individual replicates
[9] = log [compound] M -7.0, individual replicates
[10] = log [compound] M -7.5, individual replicates
[11] = log [compound] M -8.0, individual replicates
[12] = log [Compound] M -4.5, replicate experiments
[13] = log [Compound] M -5.0, replicate experiments
[14] = log [Compound] M -5.5, replicate experiments
[15] = log [Compound] M -6.0, replicate experiments
[16] = log [Compound] M -6.5, replicate experiments
[17] = log [Compound] M -7.0, replicate experiments
[18] = log [Compound] M -7.5, replicate experiments
[19] = log [Compound] M -8.0, replicate experiments

Structure (SMILES)	EC50 (GPR139 [1]; [3]) [µM]	IP1 response (% of Cmp 1a) (GPR139 [1]; [4])	IP1 response (% of Cmp 1a) (GPR139 [1]; [5])	IP1 response (% of Cmp 1a) (GPR139 [1]; [6])	IP1 response (% of Cmp 1a) (GPR139 [1]; [7])	IP1 response (% of Cmp 1a) (GPR139 [1]; [8])	IP1 response (% of Cmp 1a) (GPR139 [1]; [9])	IP1 response (% of Cmp 1a) (GPR139 [1]; [10])	IP1 response (% of Cmp 1a) (GPR139 [1]; [11])	IP1 response (% of Cmp 1a) (GPR139 [1]; [12])	IP1 response (% of Cmp 1a) (GPR139 [1]; [13])	IP1 response (% of Cmp 1a) (GPR139 [1]; [14])	IP1 response (% of Cmp 1a) (GPR139 [1]; [15])	IP1 response (% of Cmp 1a) (GPR139 [1]; [16])	IP1 response (% of Cmp 1a) (GPR139 [1]; [17])	IP1 response (% of Cmp 1a) (GPR139 [1]; [18])	IP1 response (% of Cmp 1a) (GPR139 [1]; [19])	further results
COc1cc(-c2nc(CC(=O)NC(C)c3ccccc3)no2)ccn1 (stereo not drawn) [Compound 1.7, COC1=NC=CC(C2=NC(CC(NC(C3=CC=CC=C3)C)=O)=NO2)=C1]	1.58	142 % of Cmp 1a and 109 % of Cmp 1a and 76 % of Cmp 1a and 127 % of Cmp 1a	138 % of Cmp 1a and 94 % of Cmp 1a and 74 % of Cmp 1a and 127 % of Cmp 1a	84 % of Cmp 1a and 64 % of Cmp 1a and 60 % of Cmp 1a and 90 % of Cmp 1a	57 % of Cmp 1a and 49 % of Cmp 1a and 36 % of Cmp 1a and 61 % of Cmp 1a	27 % of Cmp 1a and 9 % of Cmp 1a and 14 % of Cmp 1a and 24 % of Cmp 1a	16 % of Cmp 1a and 1.76 % of Cmp 1a and 0.565 % of Cmp 1a and 7 % of Cmp 1a	8 % of Cmp 1a and -3 % of Cmp 1a and 0.446 % of Cmp 1a and 6 % of Cmp 1a	7 % of Cmp 1a and -5.45 % of Cmp 1a and -4.55 % of Cmp 1a and 1 % of Cmp 1a	–	–	–	–	–	–	–	–	Emax (GPR139 [1]; Supplementary Table 2, normalized to Lundbeck Cmp 1a): 117 ± 14%; Ca2+ signal (% of Cmp 1a) (GPR139 [2]; individual replicates (Supplementary Figure 4)): -1.33 % of Cmp 1a and 38 % of Cmp 1a and -9 % of Cmp 1a
COc1cc(OC)cc(C(=O)NNC(=O)Nc2cccc3ccccc23)c1 [Lundbeck Cmp 1a, reference compound]	0.501	98 % of Cmp 1a and 68 % of Cmp 1a and 86 % of Cmp 1a and 109 % of Cmp 1a	133 % of Cmp 1a and 94 % of Cmp 1a and 86 % of Cmp 1a and 118 % of Cmp 1a	120 % of Cmp 1a and 61 % of Cmp 1a and 70 % of Cmp 1a and 104 % of Cmp 1a	85 % of Cmp 1a and 49 % of Cmp 1a and 68 % of Cmp 1a and 66 % of Cmp 1a	50 % of Cmp 1a and 44 % of Cmp 1a and 31 % of Cmp 1a and 21 % of Cmp 1a	21 % of Cmp 1a and 9 % of Cmp 1a and 3.75 % of Cmp 1a and 17 % of Cmp 1a	16 % of Cmp 1a and 1.22 % of Cmp 1a and 0.482 % of Cmp 1a and 2.32 % of Cmp 1a	1.43 % of Cmp 1a and -8 % of Cmp 1a and -2.66 % of Cmp 1a and -4 % of Cmp 1a	68 % of Cmp 1a and 118 % of Cmp 1a and 94 % of Cmp 1a and 117 % of Cmp 1a and 98 % of Cmp 1a and 86 % of Cmp 1a and 109 % of Cmp 1a	78 % of Cmp 1a and 115 % of Cmp 1a and 96 % of Cmp 1a and 112 % of Cmp 1a and 133 % of Cmp 1a and 94 % of Cmp 1a and 86 % of Cmp 1a and 118 % of Cmp 1a	88 % of Cmp 1a and 100 % of Cmp 1a and 81 % of Cmp 1a and 120 % of Cmp 1a and 61 % of Cmp 1a and 70 % of Cmp 1a and 104 % of Cmp 1a	58 % of Cmp 1a and 80 % of Cmp 1a and 57 % of Cmp 1a and 63 % of Cmp 1a and 85 % of Cmp 1a and 49 % of Cmp 1a and 68 % of Cmp 1a and 66 % of Cmp 1a	29 % of Cmp 1a and 32 % of Cmp 1a and 26 % of Cmp 1a and 50 % of Cmp 1a and 44 % of Cmp 1a and 31 % of Cmp 1a and 21 % of Cmp 1a	7.48 % of Cmp 1a and 13 % of Cmp 1a and 2.79 % of Cmp 1a and 11 % of Cmp 1a and 21 % of Cmp 1a and 9 % of Cmp 1a and 3.75 % of Cmp 1a and 17 % of Cmp 1a	6 % of Cmp 1a and 4.58 % of Cmp 1a and 1.86 % of Cmp 1a and 3 % of Cmp 1a and 16 % of Cmp 1a and 1.22 % of Cmp 1a and 0.482 % of Cmp 1a and 2.32 % of Cmp 1a	1.17 % of Cmp 1a and 1.86 % of Cmp 1a and 0.194 % of Cmp 1a and 1 % of Cmp 1a and 1.43 % of Cmp 1a and -8 % of Cmp 1a and -2.66 % of Cmp 1a and -4 % of Cmp 1a	Emax (GPR139 [1]): 101 ± 12%; Ca2+ signal (% of Cmp 1a) (GPR139 [2]; 10 µM compound + 800 nM Cmp 1a, individual replicates): 6.33 % of Cmp 1a and 14 % of Cmp 1a and 11 % of Cmp 1a; Ca2+ signal (% of Cmp 1a) (GPR139 [2]; Vehicle + 800 nM Cmp 1a, individual replicates): 92 % of Cmp 1a and 84 % of Cmp 1a and 83 % of Cmp 1a; Ca2+ signal (% of Cmp 1a) (GPR139 [2]; Vehicle + 10 µM Cmp 1a, individual replicates): 100 % of Cmp 1a
Cc1noc(C(C)NC(=O)Nc2cccc(-c3ccccc3)c2)n1 (stereo not drawn) [Compound 3, CC(NC(=O)NC=1C=CC=C(C1)C=2C=CC=CC2)C3=NC(C)=NO3]	–	–	–	–	–	–	–	–	–	41 % of Cmp 1a and 46 % of Cmp 1a and 42 % of Cmp 1a	22 % of Cmp 1a and 29 % of Cmp 1a and 28 % of Cmp 1a	8 % of Cmp 1a and 12 % of Cmp 1a and 10 % of Cmp 1a	0.417 % of Cmp 1a and 2.14 % of Cmp 1a and 6 % of Cmp 1a	-2.63 % of Cmp 1a and 1.42 % of Cmp 1a and -1.19 % of Cmp 1a	-0.0724 % of Cmp 1a and 2 % of Cmp 1a and 0.325 % of Cmp 1a	-1.11 % of Cmp 1a and -1.52 % of Cmp 1a and 2 % of Cmp 1a	-0.434 % of Cmp 1a and 0.295 % of Cmp 1a and 1.29 % of Cmp 1a	EC50 (GPR139 [1]): 50.1 µM; Ca2+ signal (% of Cmp 1a) (GPR139 [2]; individual replicates (Supplementary Figure 1)): 29.8327 % of Cmp 1a and 24.7661 % of Cmp 1a and 29.9717 % of Cmp 1a
